# According to patent publication US20130190263A1 (LABORATORIO DE DIAGNOSTICO GAM, S.A., priority 2010, published 2013):
# Columns and labels:
# ISA virus [1] = assay: Inhibition assay of the replicative cycle of ISAV in SHK-1 cells (real-time RT-PCR of supernatant); type: cell-based
# [2] = 48 hours
# SHK-1 cells [3] = assay: Cytotoxicity: cell viability of SHK-1 cells (propidium iodide cytometry); details: relative to effective concentration
# cell cultures = details: cited from earlier work
# SHK-1 cells [4] = details: Atlantic salmon, 3 days
# ISA virus [5] = assay: Example 1: hematocrit of ISAV-infected treated fish; type: in vivo, Salmo salar; details: live fish
# [6] = Degradation when autoclaved at 121° C., 15 psi, 25% relative humidity; type: physicochemical
# [7] = Example 1: toxicity in healthy uninfected fish given the highest dose (tank C2)
# ISA virus [8] = assay: Example 1: necropsies analysis of infected treated fish; type: in vivo, Salmo salar; details: infected fish of tanks T1 and T2; FIGS. 14 and 15
# Source text: The necropsy of the fish in the assay of controlled environment was made through external and internal clinical analysis, with registration of morphometric parameters, description and registration of pathological features (necropsy itself), sampling of internal organs (heart, kidney, spleen and gills) in ethanol and RNA later, with counter samples (i.e. duplication of the samples of the organs same), along with the sample of muscle locket with skin to be used afterwards in analysis of deficiency (presence of the Antiviral in the muscle).
# The fish were subjected to necropsy process mostly within 24 hours post sampling.
# At the end of the assay all fish were euthanized and necropsied.
# RNA viruses = details: in general, in vitro; read-out: EC50 values (effective concentration 50%); cited from earlier work
# IPNV = details: solution in the tank, exposure once during two hours; cited from earlier work
# [9] = system: VHSV virus (Viral Hemorrhagic Septicemia Virus); details: EPC cells, cited from earlier work
# ISA virus [10] = assay: Example 1: determination of viral load in heart samples (real-time RT-PCR, TCID50); details: for viral load in infected fish (intraperitoneal): FIG. 9
smiles,measurement,setting,value
CCOC(=O)C1=C[C@@H](OC(CC)CC)[C@H](NC(C)=O)[C@@H](N)C1 [oseltamivir],inhibition of the replication of ISA virus,"ISA virus [1]; concentrations as high as 300 μg/mL, SHK-1 cells, 3 days post-infection, FIG. 1",no more than 60%
"NC(=O)c1ncn([C@@H]2O[C@H](CO)[C@@H](O)[C@H]2O)n1 [ribavirin, 1-beta-D-ribofuranosyl-1H-1,2,4-triazole-3-carboxamide]",stability of the aqueous solution,[2],≤ 48 h
same,no cytotoxicity in concentrations times higher than the actual,SHK-1 cells [3],up to 10^7 times
same,CC50,cell cultures,100 µg/mL
same,concentration that produces 50% of cell toxicity (CC50),SHK-1 cells [4],> 400000 µg/mL
same,hematocrit,"ISA virus [5]; tank T1, infected, dose of 800 μg/mL",~45%
same,hematocrit,"ISA virus [5]; tank T2, infected, dose of 400 μg/mL",~45%
same,% Antiviral,[6]; 5 minutes in autoclave,97.2%
same,% Antiviral,[6]; 10 minutes in autoclave,91.9%
same,% Antiviral,[6]; 20 minutes drying + 30 minutes in autoclave,99.5%
same,% Antiviral,[6]; 30 minutes in autoclave,90.3%
same,signs of anemia,[7]; healthy fish receiving a high dose (C2),no signs of developing anemia
same,hematocrit,"[7]; tank C2, healthy, dose of 1600 μg/mL",54%
same,necropsy findings,ISA virus [8],mild inflammatory signs
same,EC50,RNA viruses,≥ 1000 nM
same,decreased rate of dead fish,IPNV,about 5%
same,EC50,"ISA virus [1]; 72 h, read-out: concentration which inhibits 50% of ISA virus replication (EC50)",~0.4 µg/mL
same,RNA inhibition,"[9]; 25 μg/ml added at 0 hours post infection, at 10 hours post infection",99.8%
same,inhibition of the virus,"[9]; concentrations of 5, 10 and 25 μg/ml",strong inhibition
same,viral load in dead fish,"ISA virus [10]; highest dose (T1) compared with T2 and C3, FIG. 8",significantly lower
same,viral load in infected fish (intraperitoneal),ISA virus [10]; highest dose (T1),lower
same,viral load in infected fish (intraperitoneal),ISA virus [10]; lowest dose (T2) versus untreated (C3),practically the same
same,average viral load (total),"ISA virus [10]; tanks T1 and T2 versus C3, FIG. 6",smaller than the uninfected fish
O=C(O)C1=C[C@@H](O)[C@@H](O)[C@H](O)C1 [shikimic acid],viral replication inhibition,"ISA virus [1]; up to concentrations of 300 μg/ml, FIG. 2",no viral replication inhibition
